Measured values taken from ChEMBL document CHEMBL3813646, “Small molecules that target phosphorylation dependent protein-protein interaction” (Bioorg Med Chem, 2016).
Each block holds one molecule with its values, some of them ahead of it. Residues, ends and D or L forms follow the SMILES beside them.

Legend:
[1] = target: Serine/threonine-protein kinase Chk2 (Homo sapiens) (UniProt O96017); test: Inhibition of Chk2 FHA (1 to 225 residues) (unknown origin) using 5-carboxyfluorescein-GHFDpTYLI-RR-OH as substrate at 40 uM incubated for 1 hr prior to addition of substrate by fluorescence polarization assay
[2] = target: Peptidyl-prolyl cis-trans isomerase NIMA-interacting 1 (Homo sapiens) (UniProt Q13526); test: Inhibition of Pin1 (1 to 162 residues) (unknown origin) using 5-carboxyfluorescein-GHFDpTYLI-RR-OH as substrate at 40 uM incubated for 1 hr prior to addition of substrate by fluorescence polarization assay
[3] = target: Serine/threonine-protein kinase PLK1 (Homo sapiens, UniProt P53350); test: Inhibition of human Plk1 PBD (326 to 603 residues) using 5-carboxyfluorescein-GPMQSpTPLNG-OH as substrate incubated for 1 hr prior to addition of substrate by fluorescence polarization assay
[4] = target: Serine/threonine-protein kinase PLK2 (Homo sapiens, UniProt Q9NYY3); test: Inhibition of human Plk2 PBD (355 to 685 residues) using 5-carboxyfluorescein-GPMQTSpTPKNG-OH as substrate incubated for 1 hr prior to addition of substrate by fluorescence polarization assay
[5] = target: Serine/threonine-protein kinase PLK3 (Homo sapiens, UniProt Q9H4B4); test: Inhibition of human Plk3 PBD (335 to 646 residues) using 5-carboxyfluorescein-GPLATSpTPKNG-OH as substrate incubated for 1 hr prior to addition of substrate by fluorescence polarization assay
14-3-3 protein sigma = target: T1, 14-3-3 protein sigma (Homo sapiens, UniProt P31947); test: Inhibition of 14-3-3sigma (unknown origin) assessed as reduction in 14-3-3sigma- mediated increase in MMP1 mRNA by cell based assay
T1 sequence (P31947 whole entry): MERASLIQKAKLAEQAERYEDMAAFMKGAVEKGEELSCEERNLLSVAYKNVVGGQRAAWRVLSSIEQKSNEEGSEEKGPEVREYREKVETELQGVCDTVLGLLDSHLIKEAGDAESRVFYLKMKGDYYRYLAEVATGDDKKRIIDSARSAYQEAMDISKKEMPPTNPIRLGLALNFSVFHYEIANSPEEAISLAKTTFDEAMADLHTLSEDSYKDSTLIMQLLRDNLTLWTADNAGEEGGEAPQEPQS

14-3-3 protein theta = target: T2, 14-3-3 protein theta (Homo sapiens, UniProt P27348); test: Binding affinity to GST-tagged 125I-labelled full length human 14-3-3tau expressed in Escherichia coli by solid phase assay
T2 sequence (P27348 whole entry): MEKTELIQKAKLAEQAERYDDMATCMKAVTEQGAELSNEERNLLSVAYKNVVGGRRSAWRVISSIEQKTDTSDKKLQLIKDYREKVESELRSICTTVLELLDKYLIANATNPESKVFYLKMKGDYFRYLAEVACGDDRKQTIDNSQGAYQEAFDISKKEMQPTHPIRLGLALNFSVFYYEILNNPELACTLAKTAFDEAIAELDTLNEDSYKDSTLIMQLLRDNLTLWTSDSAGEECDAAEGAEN

14-3-3 protein eta = target: T3, 14-3-3 protein eta (Homo sapiens, UniProt Q04917); test: Binding affinity to GST-tagged 125I-labelled 14-3-3eta (unknown origin) expressed in Escherichia coli by solid phase assay
T3 sequence (Q04917 whole entry): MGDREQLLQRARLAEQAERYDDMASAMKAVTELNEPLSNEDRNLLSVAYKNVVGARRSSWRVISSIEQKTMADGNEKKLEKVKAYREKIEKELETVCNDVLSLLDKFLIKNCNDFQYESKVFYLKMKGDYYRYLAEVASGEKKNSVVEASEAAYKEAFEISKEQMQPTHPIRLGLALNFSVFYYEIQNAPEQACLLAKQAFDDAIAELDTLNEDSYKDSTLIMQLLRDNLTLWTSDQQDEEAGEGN

[6] = target: T4, 14-3-3 protein beta/alpha (Homo sapiens, UniProt P31946); test: Binding affinity to GST-tagged 125I-labelled 14-3-3beta (unknown origin) expressed in Escherichia coli by solid phase assay
T4 sequence (P31946 whole entry): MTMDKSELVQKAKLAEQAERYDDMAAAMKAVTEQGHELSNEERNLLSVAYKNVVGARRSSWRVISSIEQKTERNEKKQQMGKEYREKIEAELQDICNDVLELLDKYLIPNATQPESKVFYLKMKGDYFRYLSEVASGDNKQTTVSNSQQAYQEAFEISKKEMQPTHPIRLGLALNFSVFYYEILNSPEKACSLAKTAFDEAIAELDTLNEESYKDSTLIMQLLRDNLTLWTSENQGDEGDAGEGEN

[7] = target: T5, 14-3-3 protein sigma (Homo sapiens) (UniProt P31947); test: Induction of human 14-3-3sigma binding to TASK-3 using FAM-370RRK-pS-V374-COOH by fluorescence polarization assay relative to control
T5 sequence (whole entry): T1 sequence (P31947 whole entry)

Sequence of Serine/threonine-protein kinase PLK2 (Q9NYY3 whole entry, the tested form may be a part): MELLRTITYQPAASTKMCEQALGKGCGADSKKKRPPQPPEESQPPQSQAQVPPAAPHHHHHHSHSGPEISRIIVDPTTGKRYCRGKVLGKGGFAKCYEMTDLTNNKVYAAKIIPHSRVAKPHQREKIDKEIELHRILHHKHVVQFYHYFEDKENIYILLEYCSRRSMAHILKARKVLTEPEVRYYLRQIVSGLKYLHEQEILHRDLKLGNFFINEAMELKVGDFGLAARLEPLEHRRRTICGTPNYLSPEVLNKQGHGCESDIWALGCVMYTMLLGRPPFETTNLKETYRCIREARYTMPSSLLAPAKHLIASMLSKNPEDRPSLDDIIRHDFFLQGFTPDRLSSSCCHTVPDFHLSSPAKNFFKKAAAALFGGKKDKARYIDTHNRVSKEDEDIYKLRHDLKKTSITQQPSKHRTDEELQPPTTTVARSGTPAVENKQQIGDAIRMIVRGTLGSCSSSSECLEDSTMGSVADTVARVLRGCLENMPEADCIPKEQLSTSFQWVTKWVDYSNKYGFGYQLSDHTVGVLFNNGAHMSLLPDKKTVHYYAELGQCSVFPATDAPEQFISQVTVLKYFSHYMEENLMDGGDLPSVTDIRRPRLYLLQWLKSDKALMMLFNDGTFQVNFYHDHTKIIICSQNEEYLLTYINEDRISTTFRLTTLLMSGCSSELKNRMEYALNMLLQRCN
Sequence of Serine/threonine-protein kinase PLK3 (Q9H4B4 whole entry, the tested form may be a part): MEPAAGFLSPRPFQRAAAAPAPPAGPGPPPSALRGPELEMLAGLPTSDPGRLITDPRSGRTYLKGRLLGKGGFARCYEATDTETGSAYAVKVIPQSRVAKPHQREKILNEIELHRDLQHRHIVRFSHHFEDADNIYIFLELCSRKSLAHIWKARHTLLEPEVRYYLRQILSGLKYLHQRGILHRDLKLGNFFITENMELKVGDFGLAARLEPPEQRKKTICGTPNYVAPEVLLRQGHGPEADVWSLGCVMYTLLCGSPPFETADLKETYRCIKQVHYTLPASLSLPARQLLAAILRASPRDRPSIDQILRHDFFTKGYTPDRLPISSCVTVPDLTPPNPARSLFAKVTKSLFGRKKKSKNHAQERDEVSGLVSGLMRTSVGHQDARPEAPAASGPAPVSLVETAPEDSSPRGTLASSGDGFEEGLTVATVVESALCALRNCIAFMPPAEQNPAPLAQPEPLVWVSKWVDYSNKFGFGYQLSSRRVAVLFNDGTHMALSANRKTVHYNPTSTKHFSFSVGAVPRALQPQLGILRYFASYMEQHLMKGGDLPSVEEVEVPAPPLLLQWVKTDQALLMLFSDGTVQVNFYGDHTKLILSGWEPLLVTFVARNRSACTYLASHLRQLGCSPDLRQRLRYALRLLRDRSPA
Sequence of Peptidyl-prolyl cis-trans isomerase NIMA-interacting 1 (Homo sapiens) (Q13526 whole entry, the tested form may be a part): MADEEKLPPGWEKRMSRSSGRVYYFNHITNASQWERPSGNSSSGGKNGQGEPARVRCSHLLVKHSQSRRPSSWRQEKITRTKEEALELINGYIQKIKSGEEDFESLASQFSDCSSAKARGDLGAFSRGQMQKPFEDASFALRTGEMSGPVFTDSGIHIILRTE
Sequence of Serine/threonine-protein kinase PLK1 (P53350 whole entry, the tested form may be a part): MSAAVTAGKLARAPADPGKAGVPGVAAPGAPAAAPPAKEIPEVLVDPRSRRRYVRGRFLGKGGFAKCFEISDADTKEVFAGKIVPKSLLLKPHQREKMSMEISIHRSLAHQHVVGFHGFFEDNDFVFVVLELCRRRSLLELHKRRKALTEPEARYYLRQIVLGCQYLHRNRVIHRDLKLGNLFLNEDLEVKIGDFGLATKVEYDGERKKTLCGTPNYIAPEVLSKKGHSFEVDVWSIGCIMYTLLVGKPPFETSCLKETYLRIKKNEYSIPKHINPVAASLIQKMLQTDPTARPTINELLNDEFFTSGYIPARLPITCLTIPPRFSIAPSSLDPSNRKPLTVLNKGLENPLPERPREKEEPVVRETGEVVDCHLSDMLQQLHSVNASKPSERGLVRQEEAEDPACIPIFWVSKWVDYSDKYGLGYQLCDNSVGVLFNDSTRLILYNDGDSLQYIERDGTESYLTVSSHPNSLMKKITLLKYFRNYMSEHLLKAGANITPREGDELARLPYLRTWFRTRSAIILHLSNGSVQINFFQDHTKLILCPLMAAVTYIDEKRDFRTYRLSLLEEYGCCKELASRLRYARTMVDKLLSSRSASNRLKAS
Sequence of Serine/threonine-protein kinase Chk2 (Homo sapiens) (O96017 whole entry, the tested form may be a part): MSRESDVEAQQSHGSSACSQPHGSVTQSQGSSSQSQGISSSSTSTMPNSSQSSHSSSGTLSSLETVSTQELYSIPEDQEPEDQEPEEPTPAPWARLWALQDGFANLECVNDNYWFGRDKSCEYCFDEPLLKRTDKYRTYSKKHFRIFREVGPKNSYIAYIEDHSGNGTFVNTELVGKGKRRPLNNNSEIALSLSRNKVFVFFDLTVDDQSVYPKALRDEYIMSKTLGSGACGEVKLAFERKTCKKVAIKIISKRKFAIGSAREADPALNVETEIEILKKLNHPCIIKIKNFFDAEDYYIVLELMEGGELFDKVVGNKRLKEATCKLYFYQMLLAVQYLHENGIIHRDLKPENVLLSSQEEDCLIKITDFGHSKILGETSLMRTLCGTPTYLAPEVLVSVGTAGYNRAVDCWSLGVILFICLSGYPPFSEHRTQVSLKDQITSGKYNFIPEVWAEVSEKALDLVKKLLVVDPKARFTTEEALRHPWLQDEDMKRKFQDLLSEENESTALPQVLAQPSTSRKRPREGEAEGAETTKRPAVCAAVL

inhibition [1]: 35%
inhibition [2]: 32%
IC50 [3]: 3200 nM
IC50 [4]: 1700 nM
IC50 [5]: 3000 nM
Compound: COc1ccc(Br)cc1/C=c1\sc2nc(=O)c(C)nn2c1=O

IC50 (14-3-3 protein sigma): 5000 nM
Compound: O=C(COc1ccccc1P(=O)(O)O)Nc1cccc(Cl)c1Cl

Compound: CSCC[C@H](NC(=O)[C@H](CC(N)=O)NC(=O)[C@H](C)NC(=O)[C@H](CCC(=O)O)NC(=O)[C@H](CC(C)C)NC(=O)[C@H](CC(=O)O)NC(=O)[C@H](CC(C)C)NC(=O)[C@H](Cc1c[nH]c2ccccc12)NC(=O)[C@H](CO)NC(=O)[C@H](CC(C)C)NC(=O)[C@H](CC(=O)O)NC(=O)[C@H](CCCNC(=N)N)NC(=O)[C@@H]1CCCN1C(=O)[C@@H](NC(=O)[C@H](CS)NC(=O)[C@H](Cc1cnc[nH]1)NC(=O)[C@@H]1CCCN1)C(C)C)C(=O)N[C@@H](CS)C(=O)N[C@@H](CC(C)C)C(=O)N1CCC[C@H]1C(=O)O (H-PHCVPRDLSWLDLEANMCLP-OH)
Kd (14-3-3 protein theta): 70 nM
Kd (14-3-3 protein eta): 70 nM
Kd [6]: 70 nM

Compound: COC[C@H]1CC[C@@H]2/C1=C\[C@]1(C)C(=C(C(C)C)[C@@H]3CCO[C@@H]31)[C@@H](O[C@H]1O[C@@H]3COC(C)(C)O[C@H]3[C@H](O)[C@H]1O)[C@H](O)[C@@H]2C
fold change (FC) [7]: 19
